According to US12077503B2, “Substituted cyclic amides and their use as herbicides” (FMC CORPORATION, priority 2015, dated 2024):

Assays:
Assay type in all cases: in vivo
[1] = test system: ducksalad (Heteranthera limosa); experiment: Test B flooded paddy test; conditions: Flood, 0 to 100 scale where 0 is no effect and 100 is complete control, 13 to 15 d
How it was run: (§1)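 2-leaf plants; pots flooded 3 cm over soil; cpd added to paddy water; depth held; greenhouse 13–15 d; visual rating vs controls, 0 = no effect, 100 = complete control.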

[2] = test system: barnyardgrass (Echinochloa crus-galli); experiment: Test B flooded paddy test; conditions: Flood, 0 to 100 scale where 0 is no effect and 100 is complete control, 13 to 15 d
How it was run: as §1

[3] = test system: rice (Oryra sativa); experiment: Test B flooded paddy test; conditions: Flood, 0 to 100 scale where 0 is no effect and 100 is complete control, 13 to 15 d
How it was run: as §1

[4] = test system: sedge, umbrella (small-flower umbrella sedge, Cyperus difformis); experiment: Test B flooded paddy test; conditions: Flood, 0 to 100 scale where 0 is no effect and 100 is complete control, 13 to 15 d
How it was run: as §1

[5] = test system: barnyardgrass (Echinochloa crus-galli); experiment: Test A preemergence; conditions: for Plant response rating, Barnyardgrass: 125 g ai/ha; for Barnyardgrass plant response rating (0 to 100 scale, 0 is no effect, 100 is complete control): 500 g ai/ha, visual injury approx. 10 d
How it was run: (§2)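 Seeds sprayed preemergence with a directed soil spray, or plants at 2 to 10 cm height and one- to two-leaf stage sprayed postemergence, with test chemicals in a non-phytotoxic solvent mixture containing surfactant, in loam soil–sand blend. Injury rated visually against untreated controls after about 10 d in greenhouse, 0 (no effect) to 100 (complete control).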

[6] = test system: ragweed (common ragweed, Ambrosia elatior); experiment: Test A preemergence; conditions: for Plant response rating, Ragweed: 125 g ai/ha; for Ragweed plant response rating (0 to 100 scale, 0 is no effect, 100 is complete control): 500 g ai/ha, visual injury approx. 10 d
How it was run: as §2

[7] = test system: ryegrass, Italian (Italian ryegrass, Lolium multiflorum); experiment: Test A preemergence; conditions: for Plant response rating, Ryegrass, Italian: 125 g ai/ha; for Ryegrass, Italian plant response rating (0 to 100 scale, 0 is no effect, 100 is complete control): 500 g ai/ha, visual injury approx. 10 d
How it was run: as §2

[8] = test system: giant foxtail (Setaria faberii); experiment: Test A preemergence; conditions: for Plant response rating, Foxtail, Giant: 125 g ai/ha; for Foxtail, Giant plant response rating (0 to 100 scale, 0 is no effect, 100 is complete control): 500 g ai/ha, visual injury approx. 10 d
How it was run: as §2

[9] = test system: Kochia (Kochia scoparia); experiment: Test A preemergence; conditions: for Plant response rating, Kochia: 125 g ai/ha; for Kochia plant response rating (0 to 100 scale, 0 is no effect, 100 is complete control): 500 g ai/ha, visual injury approx. 10 d
How it was run: as §2

[10] = test system: pigweed (Amaranthus retroflexus); experiment: Test A preemergence; conditions: for Plant response rating, Pigweed: 125 g ai/ha; for Pigweed plant response rating (0 to 100 scale, 0 is no effect, 100 is complete control): 500 g ai/ha, visual injury approx. 10 d
[11] = test system: barnyardgrass (Echinochloa crus-galli); experiment: Test A postemergence; conditions: for Barnyardgrass plant response rating: 125 g ai/ha, visual injury rating on 0 to 100 scale (0 no effect, 100 complete control), approx. 10 d; for Plant response rating, Barnyardgrass: 500 g ai/ha
How it was run: as §2

[12] = test system: blackgrass (Alopecurus myosuroides); experiment: Test A postemergence; conditions: for Blackgrass plant response rating: 125 g ai/ha, visual injury rating on 0 to 100 scale (0 no effect, 100 complete control), approx. 10 d; for Plant response rating, Blackgrass: 500 g ai/ha
How it was run: as §2

[13] = test system: ragweed (common ragweed, Ambrosia elatior); experiment: Test A postemergence; conditions: for Ragweed plant response rating: 125 g ai/ha, visual injury rating on 0 to 100 scale (0 no effect, 100 complete control), approx. 10 d; for Plant response rating, Ragweed: 500 g ai/ha
How it was run: as §2

[14] = test system: Galium (catchweed bedstraw, Galium aparine); experiment: Test A postemergence; conditions: for Galium plant response rating: 125 g ai/ha, visual injury rating on 0 to 100 scale (0 no effect, 100 complete control), approx. 10 d; for Plant response rating, Galium: 500 g ai/ha
How it was run: as §2

[15] = test system: ryegrass, Italian (Italian ryegrass, Lolium multiflorum); experiment: Test A postemergence; conditions: for Ryegrass, Italian plant response rating: 125 g ai/ha, visual injury rating on 0 to 100 scale (0 no effect, 100 complete control), approx. 10 d; for Plant response rating, Ryegrass, Italian: 500 g ai/ha
How it was run: as §2

[16] = test system: wheat (Triticum aestivum); experiment: Test A postemergence; conditions: for Wheat plant response rating: 125 g ai/ha, visual injury rating on 0 to 100 scale (0 no effect, 100 complete control), approx. 10 d; for Plant response rating, Wheat: 500 g ai/ha
How it was run: as §2

[17] = test system: giant foxtail (Setaria faberii); experiment: Test A postemergence; conditions: for Foxtail, Giant plant response rating: 125 g ai/ha, visual injury rating on 0 to 100 scale (0 no effect, 100 complete control), approx. 10 d; for Plant response rating, Foxtail, Giant: 500 g ai/ha
How it was run: as §2

[18] = test system: Kochia (Kochia scoparia); experiment: Test A postemergence; conditions: for Kochia plant response rating: 125 g ai/ha, visual injury rating on 0 to 100 scale (0 no effect, 100 complete control), approx. 10 d; for Plant response rating, Kochia: 500 g ai/ha
How it was run: as §2

[19] = test system: pigweed (Amaranthus retroflexus); experiment: Test A postemergence; conditions: for Pigweed plant response rating: 125 g ai/ha, visual injury rating on 0 to 100 scale (0 no effect, 100 complete control), approx. 10 d; for Plant response rating, Pigweed: 500 g ai/ha
How it was run: as §2

[20] = test system: corn (Zea mays); experiment: Test A postemergence; conditions: for Corn plant response rating: 125 g ai/ha, visual injury rating on 0 to 100 scale (0 no effect, 100 complete control), approx. 10 d; for Plant response rating, Corn: 500 g ai/ha
How it was run: as §2

[21] = Preemergence, visual injury after approximately 10 d, 0 to 100 scale where 0 is no effect and 100 is complete control
[22] = Postemergence, 0 to 100 scale where 0 is no effect and 100 is complete control
[23] = preemergence, 0 to 100 scale (0 no effect, 100 complete control)
[24] = postemergence, 0 to 100 scale, 0 no effect, 100 complete control

C=C(C)CN1CC(c2cccc(C(F)(F)F)c2)C(C(=O)Nc2ccccc2F)C1=O (stereo not drawn) [Compound 481]
Plant response rating, Ducksalad ([1]; 250 g ai/ha): 0
Plant response rating, Barnyardgrass ([2]; 250 g ai/ha): 0
Plant response rating, Rice ([3]; 250 g ai/ha): 0
Plant response rating, Sedge, Umbrella ([4]; 250 g ai/ha): 0
Plant response rating, Barnyardgrass [5, 21]: 0
Barnyardgrass plant response rating (0 to 100 scale, 0 is no effect, 100 is complete control) ([5]; Preemergence): 10
Plant response rating, Ragweed [6, 21]: 0
Ragweed plant response rating (0 to 100 scale, 0 is no effect, 100 is complete control) ([6]; Preemergence): 0
Plant response rating, Ryegrass, Italian [7, 21]: 0
Ryegrass, Italian plant response rating (0 to 100 scale, 0 is no effect, 100 is complete control) ([7]; Preemergence): 0
Plant response rating, Foxtail, Giant [8, 21]: 50
Foxtail, Giant plant response rating (0 to 100 scale, 0 is no effect, 100 is complete control) ([8]; Preemergence): 90
Plant response rating, Kochia [9, 21]: 0
Kochia plant response rating (0 to 100 scale, 0 is no effect, 100 is complete control) ([9]; Preemergence): 0
Plant response rating, Pigweed [10, 21]: 0
Pigweed plant response rating (0 to 100 scale, 0 is no effect, 100 is complete control) ([10]; Preemergence): 0
Barnyardgrass plant response rating ([11]; postemergence): 0
Plant response rating, Barnyardgrass [11, 22]: 20
Blackgrass plant response rating ([12]; postemergence): 0
Plant response rating, Blackgrass [12, 22]: 0
Ragweed plant response rating ([13]; postemergence): 0
Plant response rating, Ragweed [13, 22]: 0
Galium plant response rating ([14]; postemergence): 0
Plant response rating, Galium [14, 22]: 0
Ryegrass, Italian plant response rating ([15]; postemergence): 0
Plant response rating, Ryegrass, Italian [15, 22]: 0
Wheat plant response rating ([16]; postemergence): 0
Plant response rating, Wheat [16, 22]: 20
Foxtail, Giant plant response rating ([17]; postemergence): 0
Plant response rating, Foxtail, Giant [17, 22]: 20
Kochia plant response rating ([18]; postemergence): 0
Plant response rating, Kochia [18, 22]: 0
Pigweed plant response rating ([19]; postemergence): 0
Plant response rating, Pigweed [19, 22]: 0
Corn plant response rating ([20]; postemergence): 0
Plant response rating, Corn [20, 22]: 0

Cc1cc(NC(=O)C2C(=O)NCC2c2ccc(F)c(F)c2)ccc1C(F)(F)F (stereo not drawn) [Compound 414]
Plant response rating, Ducksalad ([1]; 500 g ai/ha): 40
Plant response rating, Barnyardgrass ([2]; 500 g ai/ha): 0
Plant response rating, Rice ([3]; 500 g ai/ha): 0
Plant response rating, Sedge, Umbrella ([4]; 500 g ai/ha): 0
Plant response rating, Barnyardgrass [5, 23]: 0
Barnyardgrass plant response rating (0 to 100 scale, 0 is no effect, 100 is complete control) ([5]; Preemergence): 0
Plant response rating, Ragweed [6, 23]: 0
Ragweed plant response rating (0 to 100 scale, 0 is no effect, 100 is complete control) ([6]; Preemergence): 0
Plant response rating, Ryegrass, Italian [7, 23]: 0
Ryegrass, Italian plant response rating (0 to 100 scale, 0 is no effect, 100 is complete control) ([7]; Preemergence): 0
Plant response rating, Foxtail, Giant [8, 23]: 0
Foxtail, Giant plant response rating (0 to 100 scale, 0 is no effect, 100 is complete control) ([8]; Preemergence): 10
Plant response rating, Kochia [9, 23]: 0
Kochia plant response rating (0 to 100 scale, 0 is no effect, 100 is complete control) ([9]; Preemergence): 0
Plant response rating, Pigweed [10, 23]: 0
Pigweed plant response rating (0 to 100 scale, 0 is no effect, 100 is complete control) ([10]; Preemergence): 0
Barnyardgrass plant response rating ([11]; postemergence): 0
Plant response rating, Barnyardgrass [11, 24]: 0
Blackgrass plant response rating ([12]; postemergence): 0
Plant response rating, Blackgrass [12, 24]: 0
Ragweed plant response rating ([13]; postemergence): 0
Plant response rating, Ragweed [13, 24]: 0
Galium plant response rating ([14]; postemergence): 0
Plant response rating, Galium [14, 24]: 0
Ryegrass, Italian plant response rating ([15]; postemergence): 0
Plant response rating, Ryegrass, Italian [15, 24]: 0
Wheat plant response rating ([16]; postemergence): 0
Plant response rating, Wheat [16, 24]: 0
Foxtail, Giant plant response rating ([17]; postemergence): 0
Plant response rating, Foxtail, Giant [17, 24]: 0
Kochia plant response rating ([18]; postemergence): 0
Plant response rating, Kochia [18, 24]: 10
Pigweed plant response rating ([19]; postemergence): 0
Plant response rating, Pigweed [19, 24]: 0
Corn plant response rating ([20]; postemergence): 0
Plant response rating, Corn [20, 24]: 0
